The NIST ThermoML archive (doi:10.1021/je060200b)

Tests used:
[1] = xn = mol fraction of the nth substance listed; conditions: 101 kPa, Liquid, x2 = 0; for mass density: Vibrating tube method; for speed of sound: Pulse-echo method
[2] = molar heat capacity at constant pressure; xn = mol fraction of the nth substance listed; conditions: 101 kPa, Liquid, x2 = 0
[3] = molar heat capacity at constant pressure; conditions: 101 kPa, Liquid
[4] = 101 kPa, Liquid; for speed of sound: Pulse-echo method; for mass density: Vibrating tube method

CCCCCCC [heptane] + BrCCCCCBr
Conditions	mass density [kg/m3]	molar heat capacity at constant pressure [J/K/mol]	speed of sound [m/s]
[1], 292.7 K	684.18	–	–
[1], 292.84 K	–	–	1153.7
[1], 297.98 K	679.88	–	–
[1], 298.84 K	–	–	1127.7
[1], 302.94 K	675.72	–	–
[1], 303.8 K	–	–	1106.4
[1], 308.06 K	671.47	–	–
[1], 308.78 K	–	–	1085.1
[1], 314.1 K	666.39	–	–
[1], 314.87 K	–	–	1059.1
[2], 293.15 K	–	222.87	–
[2], 294.15 K	–	223.23	–
[2], 295.15 K	–	223.6	–
[2], 296.15 K	–	223.97	–
[2], 297.15 K	–	224.35	–
[2], 298.15 K	–	224.72	–
[2], 299.15 K	–	225.1	–
[2], 300.15 K	–	225.47	–
[2], 301.15 K	–	225.87	–
[2], 302.15 K	–	226.22	–
[2], 303.15 K	–	226.61	–
[2], 304.15 K	–	227	–
[2], 305.15 K	–	227.4	–
[2], 306.15 K	–	227.75	–
[2], 307.15 K	–	228.14	–
[2], 308.15 K	–	228.54	–
[2], 309.15 K	–	228.95	–
[2], 310.15 K	–	229.3	–
[2], 311.15 K	–	229.71	–
[2], 312.15 K	–	230.11	–
[2], 313.15 K	–	230.51	–

BrCCCCCBr [1,5-dibromopentane]
Conditions	mass density [kg/m3]	molar heat capacity at constant pressure [J/K/mol]	speed of sound [m/s]
[3], 293.15 K	–	219.76	–
[3], 294.15 K	–	219.98	–
[3], 295.15 K	–	220.19	–
[3], 296.15 K	–	220.41	–
[3], 297.15 K	–	220.66	–
[3], 298.15 K	–	220.84	–
[3], 299.15 K	–	221.1	–
[3], 300.15 K	–	221.28	–
[3], 301.15 K	–	221.49	–
[3], 302.15 K	–	221.73	–
[3], 303.15 K	–	221.95	–
[3], 304.15 K	–	222.17	–
[3], 305.15 K	–	222.41	–
[3], 306.15 K	–	222.63	–
[3], 307.15 K	–	222.85	–
[3], 308.15 K	–	223.09	–
[3], 309.15 K	–	223.31	–
[3], 310.15 K	–	223.56	–
[3], 311.15 K	–	223.78	–
[3], 312.15 K	–	224.03	–
[3], 313.15 K	–	224.26	–
[4], 292.38 K	–	–	1149.5
[4], 292.52 K	1699.54	–	–
[4], 298.05 K	1691.87	–	–
[4], 298.37 K	–	–	1133
[4], 303.06 K	1684.89	–	–
[4], 303.39 K	–	–	1119.3
[4], 308.08 K	1678.03	–	–
[4], 308.38 K	–	–	1105.8
[4], 314.36 K	–	–	1089.7
[4], 314.66 K	1668.75	–	–

CCCCCCC [heptane]
Conditions	mass density [kg/m3]	molar heat capacity at constant pressure [J/K/mol]	speed of sound [m/s]
[3], 293.15 K	–	222.87	–
[3], 294.15 K	–	223.23	–
[3], 295.15 K	–	223.6	–
[3], 296.15 K	–	223.97	–
[3], 297.15 K	–	224.35	–
[3], 298.15 K	–	224.72	–
[3], 299.15 K	–	225.1	–
[3], 300.15 K	–	225.47	–
[3], 301.15 K	–	225.87	–
[3], 302.15 K	–	226.22	–
[3], 303.15 K	–	226.61	–
[3], 304.15 K	–	227	–
[3], 305.15 K	–	227.4	–
[3], 306.15 K	–	227.75	–
[3], 307.15 K	–	228.14	–
[3], 308.15 K	–	228.54	–
[3], 309.15 K	–	228.95	–
[3], 310.15 K	–	229.3	–
[3], 311.15 K	–	229.71	–
[3], 312.15 K	–	230.11	–
[3], 313.15 K	–	230.51	–
[4], 292.7 K	684.18	–	–
[4], 292.84 K	–	–	1153.7
[4], 297.98 K	679.88	–	–
[4], 298.84 K	–	–	1127.7
[4], 302.94 K	675.72	–	–
[4], 303.8 K	–	–	1106.4
[4], 308.06 K	671.47	–	–
[4], 308.78 K	–	–	1085.1
[4], 314.1 K	666.39	–	–
[4], 314.87 K	–	–	1059.1
